{"source": "patent US8354106B2", "about": "“Antibodies against HMGB1 and fragments thereof” (The Feinstein Institute for Medical Research, priority 2005, dated 2013)", "test_system": "immature BM-DCs", "assay": "Phenotypic maturation of murine BM-DCs: surface maturation markers by FACS", "type": "cell-based, mouse", "conditions": "CD11c+ gated, mean fluorescence intensity, peptide 200 μg/ml, HMGB1-Bx 50 μg/ml; for CD86 expression on the surface of BM-DCs: FIG. 3A; for MHC-II expression on the surface of BM-DCs: FIG. 3B; for CD40 expression on the surface of BM-DCs: FIG. 3C", "method": "In order to determine whether HMGB1-Bx and/or particular HMGB1 peptides could induce phenotypic maturation of murine DCs, immature BM-DCs were exposed to either HMGB1-Bx, a particular HMGB1 peptide, or LPS (FIG. 3). Fluorescence activated cell sorting (FACS) analysis was performed on immature DCs that were cultured in the presence of either HMGB1-Bx (50 μg/ml), an HMGB1 peptide (200 μg/ml), or LPS (100 ng/ml). Untreated DCs (medium) were also tested as a control. DCs were gated on CD11c^+ cells and analyzed for expression of specific maturation markers (e.g., CD86, MHC-II, CD40) by surface membrane immunofluorescence. In particular, 1×10^4 DCs were reacted for at least 20 min at 4° C. in […] of PBS/5% FCS/0.1% sodium azide (staining buffer) with fluorescein isothiocyanate (FITC)-conjugated IgG monoclonal antibodies (mAbs) that are specific for CD86, CD40 or MHC-II (eBioscience). Cells were then washed 4 times with staining buffer, fixed in 10% formaldehyde in PBS (pH 7.2-7.4) and examined by flow cytometry using a FACScan (BD Biosciences). In all experiments, isotype controls were included using a FITC-conjugated irrelevant mAb of the same Ig class. Results are depicted as mean fluorescence intensity (MFI).", "note": "Where no end group is shown, it is not given here. The star is where a group is joined. Biotin = O=C1N[C@H]2[C@H](CS[C@H]2CCCCC(=O)*)N1", "data": [{"sequence": "YAFFVQTCREEHIKKHPD [Hp-16]", "values": [{"measurement": "CD86 expression on the surface of BM-DCs", "result": "strong upregulation"}, {"measurement": "MHC-II expression on the surface of BM-DCs", "result": "strong upregulation"}, {"measurement": "CD40 expression on the surface of BM-DCs", "result": "strong upregulation"}]}, {"sequence": "CSEYRPKIKGEHPGLSIG [Hp-106] (Biotin-CSEYRPKIKGEHPGLSIG; listed as Homo sapiens)", "values": [{"measurement": "CD86 expression on the surface of BM-DCs", "result": "did not significantly enhance"}, {"measurement": "MHC-II expression on the surface of BM-DCs", "result": "did not significantly enhance"}, {"measurement": "CD40 expression on the surface of BM-DCs", "result": "did not significantly enhance"}]}]}
